Laboratory results reported in patent US20230112845A1, “COMPOSITIONS OF BERBERINE URSODE[…] METHODS THEREOF FOR TREATING FATTY LIVER DISEASE, DIABETES AND HYPERLIPIDEMIA” (SHENZHEN HIGHTIDE BIOPHARMACEUTICAL LTD., priority 2020, published 2023).
“Also recorded” adds a separate entry of the source.

Tested on: patients with presumed NASH and type 2 diabetes
Test: Phase 2 trial: adverse events, safety and tolerability
Assay type: in vivo, human
Conditions: for Subjects with TEAEs Related to Study Drug: Diarrhea, number (%) / Subjects with TEAEs Related to Study Drug: GERD, number (%) / Subjects with TEAEs Related to Study Drug: Nausea, number (%) / Subjects with TEAEs requiring discontinuation of study drug: Abdominal distension, number (%) / Subjects with TEAEs requiring discontinuation of study drug: Acute myocardial infarction, number (%) / Subjects with TEAEs requiring discontinuation of study drug: Diarrhea, number (%) / Subjects with TEAEs requiring discontinuation of study drug: GERD, number (%) / Subjects with TEAEs requiring discontinuation of study drug: Headache and Facial Rash, number (%) / Subjects with TEAEs requiring discontinuation of study drug: Melena, number (%): placebo 0; for Subjects with TEAEs Related to Study Drug: Headache, number (%) / Subjects with TEAEs requiring discontinuation of study drug: Bladder Cancer, number (%): placebo 1 (3%)
Method: A prospective, randomized, placebo-controlled trial of two doses of BUDCA administered orally was conducted in a cohort of 100 subjects with fatty liver disease and diabetes. Treatment was for 18 weeks and endpoints measured included reduction in liver fat content measured by […] proton density fat fraction, improvement in glycemic control, changes in liver-associated enzymes, safety and tolerability.
Patients with diabetes and presumed NASH were randomized into one of three treatment groups, as follows: 1) BUDCA 500 mg BID 2) 1,000 mg BID and 3) matching placebo. Presumed NASH was defined based largely on magnetic resonance imaging derived proton density fat fraction (MRI-PDFF) of 10% or more. Additional inclusion criteria further enriched the study population for having NASH by virtue of requiring corrected T1 (cT1) of more than 830 milliseconds and elevated serum aspartate aminotransferase (AST)≥20 units per liter (6). Subjects had to be overweight or obese with body mass index of 25 kg/m^2 or more.
Descriptive Statistics were used to summarize continuous data, and frequencies and percentages were used to summarize categorical data. The Safety Set consisted of all subjects who received at least one dose of study treatment. The Modified Efficacy Set is a subset of the Safety Set consisting of subjects that had at least one post-dose MRI-PDFF assessment. […] The primary endpoint was an absolute change from Baseline to Week 18 (or ET) in Liver Fat Content. Primary Endpoint summary measures were provided in both the Efficacy and Modified Efficacy sets, with the Efficacy Set prespecified as the primary analysis set. All other endpoints were prespecified to use the Modified Efficacy Set. Comparisons between active treatment groups relative to placebo were tested using Analysis of Covariance (ANCOVA) with treatment group as a fixed effect and baseline value of the parameters of interest as covariates. ANCOVA based LS Means and raw means have been reported. For statistical analysis of laboratory parameters (i.e. P-values), multiple imputation was used to take missing data into account. A two-sided alpha level of 0.05 without adjustment for multiple tests was used to indicate statistical significance. Analyses were performed using SAS System version 9.4.

## COc1ccc2cc3[n+](cc2c1OC)CCc1cc2c(cc1-3)OCO2.C[C@H](CCC(=O)[O-])[C@H]1CC[C@H]2[C@@H]3[C@@H](O)C[C@@H]4C[C@H](O)CC[C@]4(C)[C@H]3CC[C@]12C [BUDCA, berberine ursodeoxycholate]
500 mg BID and 1,000 mg BID, 18 weeks
  tolerability: generally well tolerated; also recorded: relatively well tolerated
500 mg BID, N = 33
  Subjects with TEAEs Related to Study Drug: Diarrhea, number (%): 4 (12%)
  Subjects with TEAEs Related to Study Drug: GERD, number (%): 2 (6%)
  Subjects with TEAEs Related to Study Drug: Nausea, number (%): 1 (3%)
  Subjects with TEAEs requiring discontinuation of study drug: Abdominal distension, number (%): 0
  Subjects with TEAEs requiring discontinuation of study drug: Acute myocardial infarction, number (%): 0
  Subjects with TEAEs requiring discontinuation of study drug: Diarrhea, number (%): 0
  Subjects with TEAEs requiring discontinuation of study drug: GERD, number (%): 1 (3%)
  Subjects with TEAEs requiring discontinuation of study drug: Headache and Facial Rash, number (%): 0
  Subjects with TEAEs requiring discontinuation of study drug: Melena, number (%): 0
  Subjects with TEAEs Related to Study Drug: Headache, number (%): 2 (6%)
  Subjects with TEAEs requiring discontinuation of study drug: Bladder Cancer, number (%): 0
1,000 mg BID, N = 34
  Subjects with TEAEs Related to Study Drug: Diarrhea, number (%): 9 (26%)
  Subjects with TEAEs Related to Study Drug: GERD, number (%): 0
  Subjects with TEAEs Related to Study Drug: Nausea, number (%): 5 (15%)
  Subjects with TEAEs requiring discontinuation of study drug: Abdominal distension, number (%): 1 (3%)
  Subjects with TEAEs requiring discontinuation of study drug: Acute myocardial infarction, number (%): 1 (3%)
  Subjects with TEAEs requiring discontinuation of study drug: Diarrhea, number (%): 2 (6%)
  Subjects with TEAEs requiring discontinuation of study drug: GERD, number (%): 1 (3%)
  Subjects with TEAEs requiring discontinuation of study drug: Headache and Facial Rash, number (%): 2 (6%)
  Subjects with TEAEs requiring discontinuation of study drug: Melena, number (%): 1 (3%)
  Subjects with TEAEs Related to Study Drug: Headache, number (%): 1 (3%)
  Subjects with TEAEs requiring discontinuation of study drug: Bladder Cancer, number (%): 0
1,000 mg BID, one serious adverse event
  serious adverse event in the high dose group, relation to study drug: not related to the study drug
